Residue numbers refer to the chain shown, from its start.
What was measured:
Assay in all cases: thermal shift assay
Assay type in all cases: binding
Design in all cases: (HpHtrA, G18-K475, UniProt G2J5T2); GST (N, cleaved yes); made in house; host or cells: E. coli BL21
HpHtrA D165A = target: T1, HpHtrA D165A (Helicobacter pylori, UniProt G2J5T2, D165A)
T1 sequence (G2J5T2 18-475 D165A): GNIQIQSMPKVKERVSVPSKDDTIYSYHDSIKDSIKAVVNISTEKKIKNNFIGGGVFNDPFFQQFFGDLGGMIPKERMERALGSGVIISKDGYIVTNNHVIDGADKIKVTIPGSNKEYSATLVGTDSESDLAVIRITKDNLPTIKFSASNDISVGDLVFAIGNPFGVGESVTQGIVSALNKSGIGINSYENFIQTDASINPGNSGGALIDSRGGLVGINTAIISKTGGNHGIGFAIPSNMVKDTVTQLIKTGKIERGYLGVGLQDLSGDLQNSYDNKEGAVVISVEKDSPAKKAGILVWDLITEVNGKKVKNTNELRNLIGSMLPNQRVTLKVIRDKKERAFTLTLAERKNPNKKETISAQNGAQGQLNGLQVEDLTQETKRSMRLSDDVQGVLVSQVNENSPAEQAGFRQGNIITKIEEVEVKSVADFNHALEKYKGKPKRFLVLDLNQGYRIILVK
Experimental: (§1) Recombinant HpHtrA proteins (wt, S164A, D165A, S166A, D168A) in 50 mM HEPES buffer (pH 7.4) were mixed with SYPRO Orange (Sigma-Aldrich, Vienna, Austria) to final concentrations of 4 µM HpHtrA and 7 × SYPRO Orange in a 96-well PCR plate. […] Fluorescence data was collected using an Applied Bioscience StepOne Plus PCR cycler (Thermo Fisher Scientific, Schwerte, Germany) during a temperature ramp from 25–95 °C (0.5 °C per min) with a 4 min hold at 25 °C and 95 °C. SYPRO Orange binds to exposed hydrophobic regions within the denatured HpHtrA proteins, which increases the fluorescence of the dye[57],[58]. The fluorescence emission signal can then be used to determine the melting temperature of the protein, which is located at the infliction point of the fluorescence signal curve. The experiment was performed in triplicates.

HpHtrA D168A = target: T2, HpHtrA D168A (Helicobacter pylori, UniProt G2J5T2, D168A)
T2 sequence (G2J5T2 18-475 D168A): T1 sequence (G2J5T2 18-475 D165A) with A148D, D151A
Experimental: as §1

HpHtrA S166A = target: T3, HpHtrA S166A (Helicobacter pylori, UniProt G2J5T2, S166A)
T3 sequence (G2J5T2 18-475 S166A): T1 sequence (G2J5T2 18-475 D165A) with A148D, S149A
Experimental: as §1

HpHtrA wt = target: T4, HpHtrA wt (Helicobacter pylori, UniProt G2J5T2)
T4 sequence (G2J5T2 18-475): T1 sequence (G2J5T2 18-475 D165A) with A148D
Experimental: as §1

[1] = low/increasing concentrations of ion

[Zn+2] [Zn^++, ZnCl2]
thermal stabilization (ΔTm) (HpHtrA D165A; [1]): did not stabilize
thermal stabilization (ΔTm) (HpHtrA D168A; [1]): did not stabilize
thermal stabilization (ΔTm) (HpHtrA S166A; [1]): did not stabilize
concentration at which HpHtrA wt was stabilized (HpHtrA wt; 4 µM HpHtrA wt, SYPRO Orange, 25–95 °C): approximately 10 µM

[Cu+2] [Cu^++, CuCl2]
thermal destabilization (ΔTm) (HpHtrA D165A; compared with wt and S164A): more strongly destabilized
thermal destabilization (ΔTm) (HpHtrA D168A; compared with wt and S164A): more strongly destabilized
thermal destabilization (ΔTm) (HpHtrA S166A; compared with wt and S164A): more strongly destabilized
thermal destabilization (ΔTm) (HpHtrA wt; HpHtrA wt, higher concentrations of ion): destabilized
thermal stabilization (ΔTm) (HpHtrA wt; HpHtrA wt, low concentrations of ion): stabilized

Reference: paper PMC7324608 (Scientific Reports, 2020)
